Experimental data taken from PubChem BioAssay AID248 (DTP/NCI, 2004).
Several values for one entry are separate records, joined by “and”; a condition that tells them apart may be missing. Equal entries are not always repeated. Toxic doses and inconclusive results are not listed. Cut-off read from the data, not from the text of the source: active = T/C of 150% or more; inactive = T/C below 125%.

Tested on: L1210 leukemia ip in BDF1 mice, survival T/C
Test: NCI In Vivo Anticancer Drug Screen. Data for tumor model L1210 Leukemia (intraperitoneal) in B6D2F1 (BDF1) mice
Conditions: endpoint: mean survival time, higher = longer survival
Procedure, shortened: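 Survival endpoint. Drug-treated group vs vehicle group, expressed as T divided by C. Tumor passaged by transplantation.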

[1] = dose: 100.0 mg/kg/injection, schedule: Q04DX003 (ip), vehicle: saline with Tween-80
[2] = dose: 200.0 mg/kg/injection, schedule: Q04DX003 (ip), vehicle: saline with Tween-80
[3] = dose: 50.0 mg/kg/injection, schedule: Q01DX009 (ip), vehicle: Klucel (hydroxypropylcellulose) (HPC)
[4] = dose: 100.0 mg/kg/injection, schedule: Q01DX009 (ip), vehicle: Klucel (hydroxypropylcellulose) (HPC)
[5] = dose: 200.0 mg/kg/injection, schedule: Q01DX009 (ip), vehicle: Klucel (hydroxypropylcellulose) (HPC)
[6] = dose: 100.0 mg/kg/injection, schedule: Q01DX001 (ip), vehicle: saline
[7] = dose: 100.0 mg/kg/injection, schedule: Q01DX009 (ip), vehicle: saline
[8] = dose: 100.0 mg/kg/injection, schedule: Q04DX003 (ip), vehicle: saline
[9] = dose: 200.0 mg/kg/injection, schedule: Q01DX001 (ip), vehicle: saline
[10] = dose: 200.0 mg/kg/injection, schedule: Q01DX009 (ip), vehicle: saline
[11] = dose: 200.0 mg/kg/injection, schedule: Q04DX003 (ip), vehicle: saline
[12] = dose: 400.0 mg/kg/injection, schedule: Q01DX001 (ip), vehicle: saline
[13] = dose: 400.0 mg/kg/injection, schedule: Q01DX009 (ip), vehicle: saline
[14] = dose: 400.0 mg/kg/injection, schedule: Q04DX003 (ip), vehicle: saline
[15] = dose: 100.0 mg/kg/injection, schedule: Q04DX003 (ip), vehicle: Klucel (hydroxypropylcellulose) (HPC)
[16] = dose: 200.0 mg/kg/injection, schedule: Q04DX003 (ip), vehicle: Klucel (hydroxypropylcellulose) (HPC)
[17] = dose: 400.0 mg/kg/injection, schedule: Q01DX009 (ip), vehicle: Klucel (hydroxypropylcellulose) (HPC)
[18] = dose: 400.0 mg/kg/injection, schedule: Q04DX003 (ip), vehicle: Klucel (hydroxypropylcellulose) (HPC)
[19] = dose: 100.0 mg/kg/injection, schedule: Q01DX001 (ip), vehicle: carboxymethylcellulose (CMC)
[20] = dose: 200.0 mg/kg/injection, schedule: Q01DX001 (ip), vehicle: carboxymethylcellulose (CMC)
[21] = dose: 400.0 mg/kg/injection, schedule: Q01DX001 (ip), vehicle: carboxymethylcellulose (CMC)
[22] = dose: 50.0 mg/kg/injection, schedule: Q01DX001 (ip), vehicle: saline

Measured: T/C

CSc1nnnn1-c1ccccc1
inactive: dose: 100.0 mg/kg/injection, schedule: Q04DX003 (ip), vehicle: acetone 100 % of control | [1] 102 % of control | [2] 100 % of control | dose: 400.0 mg/kg/injection, schedule: Q04DX003 (ip), vehicle: acetone 100 % of control

CC1CCc2c(c3c(=O)[nH]c(=O)[nH]c3oc2=O)C1 (configuration not stated)
inactive: [3] 105 % of control | [4] 93 % of control | [5] 89 % of control

O=C1CCSCC1
inactive: [6] 107 % of control | [7] 100 % of control | [8] 100 % of control | [9] 104 % of control | [10] 95 % of control | [11] 101 % of control | [12] 95 % of control | [13] 95 % of control | [14] 104 % of control

Oc1ccc(Br)cc1-c1nc2cc(Cl)c(Cl)cc2nc1-c1cc(Br)ccc1O
inactive: [4] 94 % of control | [15] 107 % of control | [5] 94 % of control | [16] 101 % of control | [17] 96 % of control | [18] 95 % of control

CC(CC(CCC(=O)O)(c1ccccc1)c1ccccc1)N(C)C (configuration not stated)
inactive: [19] 105 % of control | [20] 97 % of control

O=c1[nH]nnc2c1cnn2C1OC(CO)C(O)C1O (configuration not stated)
inactive: [6] 100 % of control | [9] 106 % of control | [12] 97 % of control

Cc1cc([N+](=O)[O-])c(C)cc1NC(=O)c1ccccc1
inactive: [19] 91 % of control | [20] 92 % of control | [21] 94 % of control

CCOC(=O)C/C(C(=O)O)=C(\C)c1ccc2ccccc2c1
inactive: dose: 100.0 mg/kg/injection, schedule: Q01DX001 (ip), vehicle: Klucel (hydroxypropylcellulose) (HPC) 101 % of control | [4] 95 % of control | dose: 200.0 mg/kg/injection, schedule: Q01DX001 (ip), vehicle: Klucel (hydroxypropylcellulose) (HPC) 95 % of control | [5] 100 % of control | dose: 400.0 mg/kg/injection, schedule: Q01DX001 (ip), vehicle: Klucel (hydroxypropylcellulose) (HPC) 95 % of control | [17] 86 % of control

COC1=C(C)CCC1=O
inactive: dose: 37.5 mg/kg/injection, schedule: Q04DX002 (ip), vehicle: saline 106 % of control | dose: 75.0 mg/kg/injection, schedule: Q04DX002 (ip), vehicle: saline 95 % of control | dose: 150.0 mg/kg/injection, schedule: Q04DX002 (ip), vehicle: saline 98 % of control | dose: 300.0 mg/kg/injection, schedule: Q04DX002 (ip), vehicle: saline 88 % of control

Clc1ccc(/C=N/Nc2nnc(N/N=C/c3ccc(Cl)cc3)c3ccccc23)cc1
inactive: [22] 95 % of control | [6] 101 % of control | [9] 101 % of control | [12] 95 % of control

COc1ccnc2ccc(C)c([N+](=O)[O-])c12
inactive: dose: 100.0 mg/kg/injection, schedule: Q04DX003 (ip), vehicle: other 96 % of control | dose: 200.0 mg/kg/injection, schedule: Q04DX003 (ip), vehicle: other 90 % of control

COc1ccc(C(=O)C(Br)(Cc2ccccc2)OC)cc1 (configuration not stated)
inactive: dose: 66.0 mg/kg/injection, schedule: Q04DX003 (ip), vehicle: saline 93 % of control | [8] 94 % of control | dose: 150.0 mg/kg/injection, schedule: Q04DX003 (ip), vehicle: saline 94 % of control

O=C(/C=C/c1cccc([N+](=O)[O-])c1)c1ccccc1[N+](=O)[O-]
inactive: dose: 100.0 mg/kg/injection, schedule: Q04DX002 (ip), vehicle: Klucel (hydroxypropylcellulose) (HPC) 103 % of control | dose: 200.0 mg/kg/injection, schedule: Q04DX002 (ip), vehicle: Klucel (hydroxypropylcellulose) (HPC) 103 % of control | dose: 400.0 mg/kg/injection, schedule: Q04DX002 (ip), vehicle: Klucel (hydroxypropylcellulose) (HPC) 100 % of control

O=C1c2cc(N=C(NO)C(F)(F)F)ccc2-c2ccc([N+](=O)[O-])cc21
inactive: [19] 90 % of control | [20] 90 % of control | [21] 100 % of control

COc1ccc(C(=O)CC(c2ccccc2)N2CCCCC2)cc1OC (configuration not stated)
inactive: [1] 100 % of control | [2] 108 % of control | dose: 400.0 mg/kg/injection, schedule: Q04DX003 (ip), vehicle: saline with Tween-80 105 % of control

CC(=O)OC1C=COC(C)C1OC(C)=O (configuration not stated)
inactive: [22] 105 % of control | [6] 97 % of control | [7] 109 % of control | [8] 102 % of control | [9] 100 % of control | [10] 93 % of control | [11] 91 % of control | [12] 105 % of control | [13] 102 % of control | [14] 96 % of control

CC(C)/C=N/NP(Br)(c1ccccc1)(c1ccccc1)c1ccccc1
inactive: dose: 75.0 mg/kg/injection, schedule: Q01DX001 (ip), vehicle: carboxymethylcellulose (CMC) 93 % of control | dose: 150.0 mg/kg/injection, schedule: Q01DX001 (ip), vehicle: carboxymethylcellulose (CMC) 95 % of control | dose: 300.0 mg/kg/injection, schedule: Q01DX001 (ip), vehicle: carboxymethylcellulose (CMC) 102 % of control

CCCC[CH2][Sn](=[O])[CH2]CCCC
inactive: dose: 12.5 mg/kg/injection, schedule: Q04DX003 (ip), vehicle: saline 101 % of control | dose: 25.0 mg/kg/injection, schedule: Q04DX003 (ip), vehicle: saline 101 % of control | dose: 50.0 mg/kg/injection, schedule: Q04DX003 (ip), vehicle: saline 108 % of control | [6] 109 % of control | [9] 104 % of control | [12] 98 % of control

CCOC(=O)/C(O)=C\c1cc(OC)n[n+]([O-])c1Cl
inactive: dose: 25.0 mg/kg/injection, schedule: Q04DX002 (ip), vehicle: saline with Tween-80 102 % of control | dose: 50.0 mg/kg/injection, schedule: Q04DX002 (ip), vehicle: saline with Tween-80 98 % of control | dose: 100.0 mg/kg/injection, schedule: Q04DX002 (ip), vehicle: saline with Tween-80 102 % of control

CC1CC(NC(=S)N(C)C)CC(C)(C)C1 (configuration not stated)
inactive: [3] 92 % of control | [4] 100 % of control | [5] 102 % of control

O=[N+]([O-])c1ccc(I)c(F)c1
inactive: [15] 100 % of control | [16] 100 % of control | [18] 104 % of control

CC1(C)Cc2nc3ccccc3nc2-c2ccccc21
inactive: [8] 95 % of control | [11] 90 % of control | [14] 100 % of control

N#CC(O)c1ccccc1 (configuration not stated)
inactive: dose: 2.5 mg/kg/injection, schedule: Q01DX009 (ip), vehicle: acetone 101 % of control | dose: 5.0 mg/kg/injection, schedule: Q01DX001 (ip), vehicle: carboxymethylcellulose (CMC) 95 % of control | dose: 5.0 mg/kg/injection, schedule: Q01DX009 (ip), vehicle: acetone 102 % of control | dose: 10.0 mg/kg/injection, schedule: Q01DX001 (ip), vehicle: carboxymethylcellulose (CMC) 91 % of control | dose: 10.0 mg/kg/injection, schedule: Q01DX009 (ip), vehicle: acetone 104 % of control

Nc1ncnc2cc[nH]c12
inactive: dose: 88.0 mg/kg/injection, schedule: Q01DX001 (ip), vehicle: carboxymethylcellulose (CMC) 102 % of control and 104 % of control | dose: 133.0 mg/kg/injection, schedule: Q01DX001 (ip), vehicle: carboxymethylcellulose (CMC) 96 % of control and 104 % of control | [20] 102 % of control and 106 % of control
